Measured values as given in patent publication US20040076590A1, “Antibacterial toothpaste and mouthwash formulations” (priority 2002, published 2004).

Columns and labels:
S. epidermidis = assay: d-limonene inoculation assay (phenol-coefficient), subculture at 24/48/72 hr; format: cell-based, Staphylococcus epidermidis; design: key: NG = no growth; settings: >10^5 CFU/ml in 2 ml d-limonene
Streptococcus mutans = format: cell-based
K. pneumoniae = assay: d-limonene inoculation assay (phenol-coefficient), subculture at 24/48/72 hr; format: cell-based, Klebsiella pneumoniae; design: key: NG = no growth; settings: >10^5 CFU/ml in 2 ml d-limonene
[1] = test system: other beta hemolytic streptococci; format: cell-based
S. marcescens = format: cell-based, Serratia marcescens; design: key: NG = no growth
[2] = test system: Six strains of Bacillus species; assay: Nathans Agar Well Diffusion technique, 3 replicate assays; format: cell-based; settings: for average zone of inhibition: average over Bacillus strains tested
P. aeruginosa = assay: d-limonene inoculation assay (phenol-coefficient), subculture at 24/48/72 hr; format: cell-based, Pseudomonas aeruginosa; design: key: NG = no growth; settings: >10^5 CFU/ml in 2 ml d-limonene
Ent. cloacae = format: cell-based, Enterobacter cloacae; design: key: NG = no growth
Ac. baum/haemo = assay: d-limonene inoculation assay (phenol-coefficient), subculture at 24/48/72 hr; format: cell-based, Acinetobacter baummii/haemolyticus; design: key: NG = no growth; settings: >10^5 CFU/ml in 2 ml d-limonene
[3] = test system: Stearns strain of B. anthracis; format: cell-based, Bacillus anthracis
S. maltophilia = format: cell-based, Stenotrophomonas maltophila; design: key: NG = no growth
E. faecalis = assay: d-limonene inoculation assay (phenol-coefficient), subculture at 24/48/72 hr; format: cell-based, Enterococcus faecalis; design: key: NG = no growth; settings: >10^5 CFU/ml in 2 ml d-limonene
E. coli = assay: as above; format: cell-based, Escherichia coli; design: key: NG = no growth; settings: >10^5 CFU/ml in 2 ml d-limonene
Streptococcus pyogenes = format: cell-based
S. aureus = assay: d-limonene inoculation assay (phenol-coefficient), subculture at 24/48/72 hr; format: cell-based, Staphylococcus aureus; design: key: NG = no growth; settings: >10^5 CFU/ml in 2 ml d-limonene
[4] = test system: Ames strain of B. anthracis; format: cell-based, Bacillus anthracis
E. faecium = assay: d-limonene inoculation assay (phenol-coefficient), subculture at 24/48/72 hr; format: cell-based, Enterococcus faecium; design: key: NG = no growth; settings: >10^5 CFU/ml in 2 ml d-limonene

Structure (SMILES): C=C(C)[C@H]1CC=C(C)CC1 [d-limonene]
- Growth at 24 hr (S. epidermidis; 24 hr): NG
- Growth at 48 hr (S. epidermidis; 48 hr): NG
- Growth at 72 hr (S. epidermidis; 72 hr): NG
- eradication of the pathogen (Streptococcus mutans): effective in eradicating
- Growth at 24 hr (K. pneumoniae; 24 hr): NG
- Growth at 48 hr (K. pneumoniae; 48 hr): NG
- Growth at 72 hr (K. pneumoniae; 72 hr): NG
- eradication of the pathogen [1]: effective in eradicating
- Growth at 24 hr (S. marcescens; 24 hr): NG*
- Growth at 48 hr (S. marcescens; 48 hr): NG
- Growth at 72 hr (S. marcescens; 72 hr): NG
- average zone of inhibition [2]: 21 mm
- Growth at 24 hr (P. aeruginosa; 24 hr): NG
- Growth at 48 hr (P. aeruginosa; 48 hr): NG
- Growth at 72 hr (P. aeruginosa; 72 hr): NG
- Growth at 24 hr (Ent. cloacae; 24 hr): NG
- Growth at 48 hr (Ent. cloacae; 48 hr): NG
- Growth at 72 hr (Ent. cloacae; 72 hr): NG
- Growth at 24 hr (Ac. baum/haemo; 24 hr): NG
- Growth at 48 hr (Ac. baum/haemo; 48 hr): NG
- Growth at 72 hr (Ac. baum/haemo; 72 hr): NG
- average inhibition zone [3]: 30 mm
- Growth at 24 hr (S. maltophilia; 24 hr): NG
- Growth at 48 hr (S. maltophilia; 48 hr): NG
- Growth at 72 hr (S. maltophilia; 72 hr): NG
- Growth at 24 hr (E. faecalis; 24 hr): NG
- Growth at 48 hr (E. faecalis; 48 hr): NG
- Growth at 72 hr (E. faecalis; 72 hr): NG
- Growth at 24 hr (E. coli; 24 hr): NG
- Growth at 48 hr (E. coli; 48 hr): NG
- Growth at 72 hr (E. coli; 72 hr): NG
- eradication of the pathogen (Streptococcus pyogenes): effective in eradicating
- Growth at 24 hr (S. aureus; 24 hr): NG*
- Growth at 48 hr (S. aureus; 48 hr): NG
- Growth at 72 hr (S. aureus; 72 hr): NG
- zone of inhibition [4]: 21 mm
- Growth at 24 hr (E. faecium; 24 hr): NG
- Growth at 48 hr (E. faecium; 48 hr): NG
- Growth at 72 hr (E. faecium; 72 hr): NG

Structure (SMILES): NCc1ccc(S(N)(=O)=O)cc1 [mafenide acetate]
- average zone of inhibition [2]: 36 mm
- average inhibition zone [3]: 38 mm
- susceptibility of the strain to the product [3]: susceptible
- susceptibility of the strain to the product [4]: susceptible
- zone of inhibition [4]: 34 mm

Structure (SMILES): NC(=O)N/N=C/c1ccc([N+](=O)[O-])o1 [Furacin, nitrofurazone]
- average zone of inhibition [2]: 35 mm
- average inhibition zone [3]: 33 mm

Structure (SMILES): O=[N+]([O-])[O-].[Ag+] [AgNO3, silver nitrate]
- average zone of inhibition [2]: 16 mm
- average inhibition zone [3]: 18 mm
- zone of inhibition [4]: 16 mm

Structure (SMILES): C/C(=C\C(=O)OCCCCCCCCC(=O)O)C[C@@H]1OC[C@H](C[C@@H]2O[C@H]2[C@@H](C)[C@H](C)O)[C@@H](O)[C@H]1O [Bactroban]
- average zone of inhibition [2]: 46 mm
- average inhibition zone [3]: 45 mm
- susceptibility of the strain to the product [3]: susceptible
- susceptibility of the strain to the product [4]: susceptible
- zone of inhibition [4]: 35 mm

Structure (SMILES): OCl [NaOCl, sodium hypochlorite]
- average zone size ([2]; only inhibited P. polymyxa, B. sphaericus and B. cereus): 16 mm
- susceptibility of the strain to the product [3]: susceptible to all products tested except
- zone of inhibition [4]: no zones of inhibition
